Measured values published in ChEMBL document CHEMBL1201862, “PubChem BioAssay data set” (2004).
Where a name gives a salt, the structure may show the parent alone.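 96-well plates; 48 h exposure; 5 concentrations. Endpoints by linear interpolation between flanking doses. Not reached: highest tested concentration assigned. GI50 marks 50% less growth.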 Activity calls are given as the source filed them. Cut-off read from the data, not from the text of the source: active = GI50 up to about 1.1 µM and inactive = higher.

Assays:
Assay in all cases: growth of human tumour cells (NCI), 48 h
786-0 = system: 786-0
A498 = system: A498
A549 = system: A549
CAKI-1 = system: CAKI-1
CCRF-CEM = system: CCRF-CEM
DU-145 = system: DU-145
HCT-15 = system: HCT-15
HL-60 = system: HL-60
MCF7 = system: MCF7
MDA-MB-435 = system: MDA-MB-435
Malme-3M = system: Malme-3M
OVCAR-3 = system: OVCAR-3
OVCAR-4 = system: OVCAR-4
SF-295 = system: SF-295
SNB-19 = system: SNB-19
SNB-75 = system: SNB-75
SR = system: SR
TK-10 = system: TK-10
U-251 = system: U-251
UACC-257 = system: UACC-257

Row | Structure (SMILES) | GI50 (786-0) | GI50 (A498) | GI50 (A549) | GI50 (CAKI-1) | GI50 (CCRF-CEM) | GI50 (DU-145) | GI50 (HCT-15) | GI50 (HL-60) | GI50 (MCF7) | GI50 (MDA-MB-435) | GI50 (Malme-3M) | GI50 (OVCAR-3) | GI50 (OVCAR-4) | GI50 (SF-295) | GI50 (SNB-19) | GI50 (SNB-75) | GI50 (SR) | GI50 (TK-10) | GI50 (U-251) | GI50 (UACC-257)
1 | N=C(N)NS(=O)(=O)c1ccc(NC(=O)c2ccc3nc4ccccc4c(Nc4ccc(S(=O)(=O)N=C(N)N)cc4)c3c2)cc1 | > 100 µM (inactive) | > 100 µM (inactive) | > 100 µM (inactive) | > 100 µM (inactive) | > 100 µM (inactive) | > 100 µM (inactive) | > 100 µM | > 100 µM (inactive) | > 100 µM (inactive) | > 100 µM (inactive) | > 100 µM (inactive) | > 100 µM (inactive) | > 100 µM (inactive) | > 100 µM (inactive) | > 100 µM (inactive) | > 100 µM (inactive) | > 100 µM (inactive) | > 100 µM (inactive) | > 100 µM (inactive) | > 100 µM (inactive)
2 | CCOC(=O)C1CC(C(=O)c2ccccc2)N2c3ccccc3-c3ccccc3C12 (stereo not given) | 40.1 µM (inactive) | > 100 µM (inactive) | 73.6 µM (inactive) | > 100 µM (inactive) | 28.1 µM (inactive) | > 100 µM (inactive) | > 100 µM | 10.7 µM (inactive) | > 100 µM (inactive) | 86.7 µM (inactive) | > 100 µM (inactive) | 30 µM (inactive) | 26.4 µM (inactive) | 82.2 µM (inactive) | > 100 µM (inactive) | 28.1 µM (inactive) | 19.2 µM (inactive) | > 100 µM (inactive) | 30.3 µM (inactive) | > 100 µM (inactive)
3 | O=C(O)CN1CCNCCN(CC(=O)O)CCN(CC(=O)O)CCNCC1 | 93.3 µM (inactive) | 71.9 µM (inactive) | > 100 µM (inactive) | > 100 µM (inactive) | > 100 µM (inactive) | > 100 µM (inactive) | 61.9 µM | 25.9 µM (inactive) | 69.8 µM (inactive) | > 100 µM (inactive) | > 100 µM (inactive) | 76 µM (inactive) | > 100 µM (inactive) | > 100 µM (inactive) | > 100 µM (inactive) | 63.4 µM (inactive) | 61.1 µM (inactive) | > 100 µM (inactive) | > 100 µM (inactive) | > 100 µM (inactive)
4 | CC(C)(C)c1cc(C(C)(C)C)c2c(c1O)OC(=O)CS2 | 6.07 µM (inactive) | 13 µM (inactive) | 3.59 µM (inactive) | 5.9 µM (inactive) | 4.17 µM (inactive) | 15.7 µM (inactive) | 3.66 µM | 3.62 µM (inactive) | 3.82 µM (inactive) | 3.85 µM (inactive) | 20.8 µM (inactive) | 3.69 µM (inactive) | 5.28 µM (inactive) | 4.26 µM (inactive) | 5.2 µM (inactive) | 1.15 µM (inactive) | 4.56 µM (inactive) | 3.88 µM (inactive) | 4.78 µM (inactive) | 13.9 µM (inactive)
5 | S=P(C1CCCCC1)(C1CCCCC1)C(c1cccnc1)N1CCCC1 (stereo not given) | 17.6 µM (inactive) | 27.7 µM (inactive) | 17.8 µM (inactive) | 17.4 µM (inactive) | 15.8 µM (inactive) | 16.1 µM (inactive) | 35.7 µM | 18.1 µM (inactive) | > 100 µM (inactive) | 18.4 µM (inactive) | 23.2 µM (inactive) | 92.5 µM (inactive) | 21.5 µM (inactive) | 21.2 µM (inactive) | 83.2 µM (inactive) | 19.4 µM (inactive) | 25.5 µM (inactive) | 18.5 µM (inactive) | 20.2 µM (inactive) | > 100 µM (inactive)
6 | CN(C)CCCc1cccnc1 | > 100 µM (inactive) | > 100 µM (inactive) | > 100 µM (inactive) | > 100 µM (inactive) | > 100 µM (inactive) | > 100 µM (inactive) | > 100 µM | > 100 µM (inactive) | > 100 µM (inactive) | > 100 µM (inactive) | > 100 µM (inactive) | > 100 µM (inactive) | > 100 µM (inactive) | > 100 µM (inactive) | > 100 µM (inactive) | 41.7 µM (inactive) | > 100 µM (inactive) | > 100 µM (inactive) | > 100 µM (inactive) | > 100 µM (inactive)
7 | NCCCCN [PUTRESCINE HYDROCHLORIDE] | > 100 µM (inactive) | > 100 µM (inactive) | > 100 µM (inactive) | 15 µM (inactive) | > 100 µM (inactive) | > 100 µM (inactive) | > 100 µM | > 100 µM (inactive) | > 100 µM (inactive) | 8.36 µM (inactive) | > 100 µM (inactive) | > 100 µM (inactive) | 19.4 µM (inactive) | > 100 µM (inactive) | > 100 µM (inactive) | > 100 µM (inactive) | > 100 µM (inactive) | > 100 µM (inactive) | > 100 µM (inactive) | > 100 µM (inactive)
8 | COC(=O)/C=C/c1cnc2c(c1)oc(=O)n2C | > 100 µM (inactive) | > 100 µM (inactive) | > 100 µM (inactive) | > 100 µM (inactive) | > 100 µM (inactive) | > 100 µM (inactive) | > 100 µM | > 100 µM (inactive) | > 100 µM (inactive) | > 100 µM (inactive) | > 100 µM (inactive) | > 100 µM (inactive) | > 100 µM (inactive) | > 100 µM (inactive) | > 100 µM (inactive) | > 100 µM (inactive) | > 100 µM (inactive) | > 100 µM (inactive) | > 100 µM (inactive) | > 100 µM (inactive)
9 | O=C(Cn1c(=O)oc2ccc(C(=O)c3ccccc3Cl)cc21)c1ccc([N+](=O)[O-])cc1 | 19.6 µM (inactive) | 30.1 µM (inactive) | 25.2 µM (inactive) | 38.5 µM (inactive) | 4.29 µM (inactive) | 42 µM (inactive) | 17.7 µM | 11.2 µM (inactive) | 22.9 µM (inactive) | 17.7 µM (inactive) | 25.5 µM (inactive) | 17 µM (inactive) | 10.9 µM (inactive) | 21.8 µM (inactive) | 40.5 µM (inactive) | 0.824 µM (active) | 8.39 µM (inactive) | 51.1 µM (inactive) | 29.9 µM (inactive) | 31.1 µM (inactive)
10 | C=CCOC1=C(OC(C)=O)C(=O)OC1C1COC(C)(C)O1 (stereo not given) | 32.1 µM (inactive) | > 89.5 µM (inactive) | > 73.5 µM (inactive) | 37.7 µM (inactive) | 21.4 µM (inactive) | > 92.9 µM (inactive) | 19.5 µM | 18.5 µM (inactive) | 28.2 µM (inactive) | 34.3 µM (inactive) | 21.8 µM (inactive) | 17.5 µM (inactive) | 17.2 µM (inactive) | 79.1 µM (inactive) | > 74.3 µM (inactive) | > 36.3 µM (inactive) | 5.58 µM (inactive) | 67 µM (inactive) | 42.5 µM (inactive) | 60.3 µM (inactive)
11 | COc1ccc(CC2C(=O)NC(C)C(=O)N(C)C3C(=O)N(C)C(Cc4ccc(O)c(c4)Oc4ccc(cc4)C3O)C(=O)NC(C)C(=O)NC(C)C(=O)N2C)cc1 (stereo not given) | 0.015 µM (active) | 0.022 µM (active) | 0.0353 µM (active) | 0.0512 µM (active) | 0.0013 µM (active) | < 0.01 µM (active) | 0.658 µM | 0.00308 µM (active) | 0.0125 µM (active) | < 0.01 µM (active) | 0.0171 µM (active) | 0.0113 µM (active) | 0.00664 µM (active) | 0.0138 µM (active) | 0.00392 µM (active) | 0.0137 µM (active) | < 0.01 µM (active) | 0.336 µM (active) | 0.00124 µM (active) | 0.0071 µM (active)
12 | CCCCCCCCCCCCCCCCCCNc1ccn(C2OC(COP(=O)(O)OCC3OC(n4cc(C)c(=O)[nH]c4=O)CC3F)C(O)C2O)c(=O)n1 (stereo not given) | 4.06 µM (inactive) | 13.8 µM (inactive) | 11.2 µM (inactive) | 8.73 µM (inactive) | 4.61 µM (inactive) | 11.4 µM (inactive) | 6.01 µM | 5.46 µM (inactive) | 9.46 µM (inactive) | 7.91 µM (inactive) | 15 µM (inactive) | 7.24 µM (inactive) | 9.02 µM (inactive) | 9.89 µM (inactive) | 6.5 µM (inactive) | 19.8 µM (inactive) | 1.44 µM (inactive) | 3.08 µM (inactive) | 7.26 µM (inactive) | 10.4 µM (inactive)
13 | Clc1ccc(C2=Cc3nc2c(-c2ccccc2)c2ccc([nH]2)c(-c2ccccc2)c2nc(c(-c4ccccc4)c4ccc([nH]4)c3-c3ccccc3)C=C2)cc1 | > 62.5 µM (inactive) | > 62.5 µM (inactive) | > 62.5 µM (inactive) | 13.9 µM (inactive) | > 62.5 µM (inactive) | > 62.5 µM (inactive) | > 62.5 µM | > 62.5 µM (inactive) | > 62.5 µM (inactive) | > 62.5 µM (inactive) | > 62.5 µM (inactive) | > 62.5 µM (inactive) | > 62.5 µM (inactive) | > 62.5 µM (inactive) | 46 µM (inactive) | 32.9 µM (inactive) | > 62.5 µM (inactive) | > 62.5 µM (inactive) | > 62.5 µM (inactive) | > 62.5 µM (inactive)
14 | C=C1[C@@H](C)[C@H]2[C@H](Cc3ccccc3)NC(=O)[C@]23OC(=O)/C=C/[C@H](O)CCC[C@@H](C)C/C=C/[C@H]3[C@@H]1O | 7.62 µM (inactive) | 1.83 µM (inactive) | 2.85 µM (inactive) | 0.233 µM (active) | 2.37 µM (inactive) | 30.1 µM (inactive) | 0.619 µM | 16.1 µM (inactive) | 16.6 µM (inactive) | 21.8 µM (inactive) | 16.3 µM (inactive) | 7.48 µM (inactive) | 8.67 µM (inactive) | 0.979 µM (active) | 5.66 µM (inactive) | 0.0748 µM (active) | > 100 µM (inactive) | 4.06 µM (inactive) | 2.08 µM (inactive) | 9.62 µM (inactive)
